Key:
[1] = 100.8 kPa, Liquid
[2] = refractive index (Na D-line) (dimensionless); conditions: 101.33 kPa, Liquid, Standard Abbe refractometry
[3] = refractive index (Na D-line) (dimensionless); xn = mol fraction of the nth substance listed; conditions: 100.8 kPa, Liquid, Standard Abbe refractometry
[4] = xn = mol fraction of the nth substance listed; conditions: 100.8 kPa, Liquid

CC(C)OC(C)C [diisopropyl ether]
Conditions	mass density, 288.15 K [kg/m3]	mass density, 298.15 K [kg/m3]	mass density, 308.15 K [kg/m3]	refractive index, 288.15 K	refractive index, 298.15 K	refractive index, 308.15 K	viscosity, 288.15 K [mPa·s]	viscosity, 298.15 K [mPa·s]	viscosity, 308.15 K [mPa·s]
[1]	729	718.6	707.9	–	–	–	0.347	0.313	0.283
[2]	–	–	–	1.37126	1.36537	1.35954	–	–	–

CC(C)OC(C)C [diisopropyl ether] + CC1CCCCC1
x1 = 1
Conditions	mass density, 288.15 K [kg/m3]	mass density, 298.15 K [kg/m3]	mass density, 308.15 K [kg/m3]	refractive index, 288.15 K	refractive index, 298.15 K	refractive index, 308.15 K
[3]	–	–	–	1.37126	1.36537	1.35954
[4]	729	718.6	707.9	–	–	–

[4], Capillary tube (Ostwald / Ubbelohde) method, x1 = 1
Conditions	viscosity [mPa·s]
288.15 K	0.347
298.15 K	0.313
308.15 K	0.283

CCO [ethanol]
Conditions	mass density, 288.15 K [kg/m3]	mass density, 298.15 K [kg/m3]	mass density, 308.15 K [kg/m3]	refractive index, 288.15 K	refractive index, 298.15 K	refractive index, 308.15 K	viscosity, 288.15 K [mPa·s]	viscosity, 298.15 K [mPa·s]	viscosity, 308.15 K [mPa·s]
[1]	793.6	785.2	776.5	–	–	–	1.31	1.085	0.906
[2]	–	–	–	1.36351	1.35935	1.35504	–	–	–

CCO [ethanol] + CC1CCCCC1
x1 = 1
Conditions	mass density, 288.15 K [kg/m3]	mass density, 298.15 K [kg/m3]	mass density, 308.15 K [kg/m3]	refractive index, 288.15 K	refractive index, 298.15 K	refractive index, 308.15 K	viscosity, 288.15 K [mPa·s]	viscosity, 298.15 K [mPa·s]	viscosity, 308.15 K [mPa·s]
[3]	–	–	–	1.36351	1.35935	1.35504	–	–	–
[4]	793.6	785.2	776.5	–	–	–	1.31	1.085	0.906

CCO [ethanol] + CC(C)OC(C)C
x2 = 0
Conditions	mass density, 288.15 K [kg/m3]	mass density, 298.15 K [kg/m3]	mass density, 308.15 K [kg/m3]	refractive index, 288.15 K	refractive index, 298.15 K	refractive index, 308.15 K	viscosity, 288.15 K [mPa·s]	viscosity, 298.15 K [mPa·s]	viscosity, 308.15 K [mPa·s]
[3]	–	–	–	1.36351	1.35935	1.35504	–	–	–
[4]	793.6	785.2	776.5	–	–	–	1.31	1.085	0.906

CC1CCCCC1 [methylcyclohexane]
Conditions	mass density, 288.15 K [kg/m3]	mass density, 298.15 K [kg/m3]	mass density, 308.15 K [kg/m3]	refractive index, 288.15 K	refractive index, 298.15 K	refractive index, 308.15 K	viscosity, 288.15 K [mPa·s]	viscosity, 298.15 K [mPa·s]	viscosity, 308.15 K [mPa·s]
[1]	773.4	765	756.3	–	–	–	0.784	0.685	0.6
[2]	–	–	–	1.42578	1.42053	1.41537	–	–	–
